In patent US20180147206A1, “ACTIVATION OF NEURONAL STORE-OPERATED CALCIUM ENTRY PATHWAY FOR THE TREATMENT OF ALZHEIMER'S DISEASE” (The Board of Regents of the University of Texas System, priority 2015, published 2018):

Experiments:
[1] = tested on: hippocampal neurons
[2] = tested on: AβPPSwe/PSEN1ΔE9 (AβPP/PS1) transgenic mice; details: previous studies; cited from earlier work
[3] = tested on: mushroom spines of hippocampal neurons; experiment: Dendritic spine analysis in primary hippocampal neural cultures; format: cell-based, mouse; details: for mushroom spine loss: 30 nM for 16 hours
Method: FIGS. 4A-E. NSN21778 and Hyperforin rescue synaptic nSOC and mushroom spine loss in AD hippocampal neurons. (FIG. 4A) Chemical structure of NSN21778 and Hyperforin. (FIG. 4B) Time-course of GCaMP5.3 fluorescence signal changes in the spines of wild-type, PS1KI and APPKI hippocampal neurons. The time of extracellular Ca^2+ re-addition is indicated by a black bar above the traces. 100 μM DHPG was added 50 sec prior to Ca^2+ re-addition. The results are shown for control (CON) neurons and for neurons pretreated with 300 nM NSN21778 (+NSN) or 300 nM Hyperforin (+Hyp) for 30 min as indicated. For each experimental group individual spine (grey) and average (red) fluorescence traces are shown. (FIG. 4C) The average nSOC spine peak amplitude is shown for each group of cells shown on panel B. The mean AF/Fo signals for each group and presented as mean±SE (n≥45 spines). ***, p <0.001. (FIG. 4D) Confocal images of wild-type, PS1KI and APPKI hippocampal neurons transfected with TD-Tomato and fixed at DIV15-16. The images are shown for control neurons (CON) and for neurons treated with 30 nM NSN21778 (+NSN) or 30 nM Hyperforin (+Hyp) for 16 hours prior to fixation. Scale bar is 10 μm. (FIG. 4E) The average fraction of mushroom spines for each group of cells shown on FIG. 4D is presented as mean±SE (n≥18 neurons). ***, p <0.001.
FIGS. 5A-E. TRPC6 is a molecular target for NSN21778 and Hyperforin. (FIGS. 5A-B) Time course of Fura-2 Ca^2+ signals is shown for HEK293 cells transfected with EGFP plasmid (GFP) or combination of EGFP and TRPC6 plasmids (TRPC6). Cells were incubated in ACSF media containing 2 mM Ca^2+. In experiments shown in FIG. 5B, cells were moved to modified ACSF media containing 0.1 mM Ca^2+ for 2 min and then returned to the media containing 2 mM Ca^2+ with addition of 100 μM OAG. The time of addition of 1 μM Hyperforin (Hyp) or NSN21778 (NSN) is indicated by red bars above the Fura-2 traces. For each experimental group individual spine (grey) and average (red) fluorescence traces are shown. (FIG. 5C) The average Ca^2+ influx peak is shown for experiments presented on FIGS. 5A-B as mean±SE (n≥81). (FIG. 5D) Confocal images of wild-type and PS1KI hippocampal neurons transfected with TD-Tomato and fixed at DIV15-16. The neurons were infected with lentiviruses encoding control RNAi (siCtrl), RNAi against TRPC6 (siT6) or RNAi against Orai2 (siO2). The images are shown for no drug treated neurons (CON) and for neurons treated with 30 nM NSN21778 (+NSN) or 30 nM Hyperforin (+Hyp) for 16 hours prior to fixation. Scale bar is 10 μm. No drug treated group of wild-type and PS1KI neurons is from the same experiment as shown on FIG. 2A-J. (FIG. 5E) The average fraction of mushroom spines for each group of cells shown on panel A is presented as mean±SE (n≥19 neurons). ***, p <0.001.
Dendritic Spine Analysis in Primary Hippocampal Neural Cultures. The hippocampal cultures of PS1KI, APPKI and WT mice were established from postnatal day 0-1 pups and maintained in culture as the inventors described previously [Zhang, 2010 #5733]. For assessment of synapse morphology, hippocampal cultures were transfected with TD-Tomato plasmid at DIV7 using the calcium phosphate method and fixed (4% formaldehyde, 4% sucrose in PBS, pH 7.4) at DIV15-16. A Z-stack of optical section was captured using 100× objective with a confocal microscope (Carl Zeiss Axiovert 100M with LSM510). 18-20 cultured neurons from three batches of cultures were used for quantitative analysis per genotype. Quantitative analysis for dendritic spines was performed by using NeuronStudio software package [Rodriguez, 2008 #6276]. To classify the shape of neuronal spines in culture, the inventors adapted an algorithm from published method [Rodriguez, 2008 #6276]. In classification of spine shapes the inventors used the following cutoff values: aspect ratio for thin spines (AR_thin(crio))=2.5, head to neck ratio (HNR(crit))=1.4, and head diameter (HD(crit))=0.5 μm. […]

[4] = biological target: T1, TRPC6 (Homo sapiens, UniProt Q9Y210); experiment: Fura-2 Ca2+ imaging in TRPC6-transfected HEK293 cells; format: cell-based; details: for Ca2+ influx: 1 μM; for Ca2+ influx response: TRPC6-transfected cells, 100 μM
T1 construct: expressed in transfected cells; host or cells: HEK293
T1 sequence (Q9Y210 1-931): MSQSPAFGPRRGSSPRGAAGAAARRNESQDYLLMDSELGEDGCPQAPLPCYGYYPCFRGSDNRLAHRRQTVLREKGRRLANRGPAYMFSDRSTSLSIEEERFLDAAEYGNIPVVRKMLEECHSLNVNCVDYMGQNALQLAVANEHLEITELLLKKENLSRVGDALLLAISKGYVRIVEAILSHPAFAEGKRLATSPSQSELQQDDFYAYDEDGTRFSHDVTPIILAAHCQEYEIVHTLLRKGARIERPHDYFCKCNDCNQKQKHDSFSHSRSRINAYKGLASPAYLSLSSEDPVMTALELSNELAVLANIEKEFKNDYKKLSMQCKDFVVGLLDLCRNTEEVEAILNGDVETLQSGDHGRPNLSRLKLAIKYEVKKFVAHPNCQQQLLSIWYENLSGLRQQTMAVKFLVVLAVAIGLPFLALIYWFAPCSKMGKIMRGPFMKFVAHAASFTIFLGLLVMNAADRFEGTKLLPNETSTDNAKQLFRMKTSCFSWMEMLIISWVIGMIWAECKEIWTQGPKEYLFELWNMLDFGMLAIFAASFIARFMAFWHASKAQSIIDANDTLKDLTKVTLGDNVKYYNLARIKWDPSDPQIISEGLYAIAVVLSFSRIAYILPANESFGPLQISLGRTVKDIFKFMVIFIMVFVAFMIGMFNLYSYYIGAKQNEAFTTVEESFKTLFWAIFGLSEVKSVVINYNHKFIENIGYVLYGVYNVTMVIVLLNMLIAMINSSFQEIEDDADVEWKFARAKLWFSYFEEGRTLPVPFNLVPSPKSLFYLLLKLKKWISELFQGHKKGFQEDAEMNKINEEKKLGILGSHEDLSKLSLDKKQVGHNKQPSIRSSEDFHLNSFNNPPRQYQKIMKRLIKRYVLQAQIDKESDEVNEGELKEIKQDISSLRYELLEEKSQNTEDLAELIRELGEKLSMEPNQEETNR

[5] = tested on: spine nSOC channels; experiment: GCamp5.3 Ca2+ imaging of synaptic nSOC in cultured hippocampal neurons; format: cell-based, mouse
[6] = tested on: TRPC3/6/7 channels; details: recent study (Montecinos-Oliva et al., 2014); cited from earlier work

CC(C)=CCC[C@]1(C)[C@@H](CC=C(C)C)C[C@@]2(CC=C(C)C)C(=O)[C@]1(C(=O)C(C)C)C(=O)C(CC=C(C)C)=C2O [Hyperforin]
toxicity, acute [1]: very large Ca^2 elevations and toxicity
toxicity, overnight [1]: neuronal toxicity in some batches
beta-amyloid neurotoxicity and spatial memory impairments [2]: able to prevent
mushroom spines ([3]; PS1KI and APPKI neurons, 30 nM for 16 hr): complete rescue
mushroom spine loss ([3]; PS1KI cultures infected with control RNAi lentiviruses): rescued mushroom spine loss
mushroom spine loss ([3]; PS1KI hippocampal neurons following knockdown of TRPC6 or Orai2): failed to rescue mushroom spine loss
mushroom spine loss ([3]; wild-type neurons with knockdown of TRPC6 or Orai2): failed to rescue
fraction of mushroom spines ([3]; wild-type neurons, 30 nM for 16 hr): no significant effect
Ca2+ influx ([4]; TRPC6-transfected HEK293 cells, 2 mM Ca2+): activated Ca^2+ influx
Ca2+ influx ([4]; control HEK293 cells transfected with EGFP plasmid): not in control cells
spine nSOC ([5]; PS1KI and APPKI hippocampal neurons, 300 nM applied prior to Ca2+ re-addition): rescued spine nSOC
spine nSOC ([5]; wild-type spines, 300 nM): no significant effect

CCCCCCCC/C=C/CCCCCCCC(=O)OCC(CO)OC(C)=O (stereo not shown) [OAG]
Ca2+ influx response ([4]; standard recording conditions (data not shown)): highly variable responses
Ca2+ influx response ([4]; stores partially depleted by 0.1 mM Ca2+ preincubation): more consistent responses
Ca2+ responses in spines ([5]; direct application to hippocampal neuronal cultures (data not shown)): induced Ca^2+ responses in just a few spines

tetrahydrohyperforin [IDN5706]
Aβ-induced synaptic plasticity defects [6]: rescued
